{
  "source": "patent US6355799B1",
  "about": "“Substituted benzene compounds, process for their preparation, and herbicidal and defoliant compositions containing them” (ISK Americas Incorporated, priority 1997, dated 2002)",
  "type_in_all_cases": "in vivo",
  "key": {"[1]": {"tested_on": "redroot pigweed (Amaranthus retroflexus, AMARE)", "test": "Pre-emerge test, greenhouse herbicide activity screening", "conditions": "pre-emerge, 14 days after application, scale 0-100", "outline": "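Sandy loam pots; pre-emerge: sown 1 d pre-spray, surface-watered after, then bottom-watered. Post-emerge: sown 8–21 d before, 2–3 leaf stage, + 0.25% v/v NIS, bottom-watered. Acetone, 187 l/ha track spray, 15–1000 g ai/ha. 0–100 injury score, day 14.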"}, "[2]": {"tested_on": "barnyardgrass (Echinochloa crus-galli, ECHCG)", "test": "Pre-emerge test, greenhouse herbicide activity screening", "conditions": "pre-emerge, 14 days after application, scale 0-100", "outline": "(§1)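 Rating: 0–100 visual injury, 14 DAA. Application: acetone, 187 l/ha, 15–1000 g ai/ha, flat-fan track sprayer with nozzle 40–45 cm above soil or canopy. Post-emerge runs used 0.25% v/v surfactant on 2–3 leaf plants.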"}, "[3]": {"tested_on": "common ragweed (Ambrosia artemisizfolia L., AMBEL)", "test": "Pre-emerge test, greenhouse herbicide activity screening", "conditions": "pre-emerge, 14 days after application, scale 0-100", "outline": "as §1"}, "[4]": {"tested_on": "green foxtail (Setaria viridis, SETVI)", "test": "Pre-emerge test, greenhouse herbicide activity screening", "conditions": "pre-emerge, 14 days after application, scale 0-100", "outline": "as §1"}, "[5]": {"tested_on": "ivyleaf morningglory (Ipomoea hederacea, IPOHE)", "test": "Pre-emerge test, greenhouse herbicide activity screening", "conditions": "pre-emerge, 14 days after application, scale 0-100", "outline": "as §1"}, "[6]": {"tested_on": "johnsongrass (Sorghum halepense, SORHA)", "test": "Pre-emerge test, greenhouse herbicide activity screening", "conditions": "pre-emerge, 14 days after application, scale 0-100", "outline": "as §1"}, "[7]": {"tested_on": "lambsquarters (Chenopodium album, CHEAL)", "test": "Pre-emerge test, greenhouse herbicide activity screening", "conditions": "pre-emerge, 14 days after application, scale 0-100", "outline": "as §1"}, "[8]": {"tested_on": "large crabgrass (Digitaria sanguinalis, DIGSA)", "test": "Pre-emerge test, greenhouse herbicide activity screening", "conditions": "pre-emerge, 14 days after application, scale 0-100", "outline": "as §1"}, "[9]": {"tested_on": "sicklepod (Cassia obtusifolia, CASOB)", "test": "Pre-emerge test, greenhouse herbicide activity screening", "conditions": "pre-emerge, 14 days after application, scale 0-100", "outline": "as §1"}, "[10]": {"tested_on": "velvetleaf (Abutilon theophrasti, ABUTH)", "test": "Pre-emerge test, greenhouse herbicide activity screening", "conditions": "pre-emerge, 14 days after application, scale 0-100", "outline": "as §1"}, "[11]": {"tested_on": "field corn (Zea mays L., var. Dekalb 535, CORN)", "test": "Pre-emerge test, crop safety", "conditions": "pre-emerge, 14 days after application, scale 0-100", "outline": "(§2)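 Fourteen days after spraying, crop and weed injury was graded visually from 0, no effect, to 100, every plant dead. Test substances were dissolved in acetone and applied at 15–1000 g ai/ha with a flat-fan nozzle. Application was either pre-emergence, one day after sowing, or post-emergence at the 2–3 leaf stage.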"}, "[12]": {"tested_on": "upland rice (Oryza sp., var. Tebonnet, RICE)", "test": "Pre-emerge test, crop safety", "conditions": "pre-emerge, 14 days after application, scale 0-100", "outline": "as §2"}, "[13]": {"tested_on": "barnyardgrass (Echinochloa crus-galli, ECHCG)", "test": "Post-emerge test, greenhouse herbicide activity screening", "conditions": "post-emerge, 14 days after application, rating scale 0-100", "outline": "as §1"}, "[14]": {"tested_on": "green foxtail (Setaria viridis, SETVI)", "test": "Post-emerge test, greenhouse herbicide activity screening", "conditions": "post-emerge, 14 days after application, rating scale 0-100", "outline": "as §1"}, "[15]": {"tested_on": "ivyleaf morningglory (Ipomoea hederacea, IPOHE)", "test": "Post-emerge test, greenhouse herbicide activity screening", "conditions": "post-emerge, 14 days after application, rating scale 0-100", "outline": "as §1"}, "[16]": {"tested_on": "johnsongrass (Sorghum halepense, SORHA)", "test": "Post-emerge test, greenhouse herbicide activity screening", "conditions": "post-emerge, 14 days after application, rating scale 0-100", "outline": "as §1"}, "[17]": {"tested_on": "lambsquarters (Chenopodium album, CHEAL)", "test": "Post-emerge test, greenhouse herbicide activity screening", "conditions": "post-emerge, 14 days after application, rating scale 0-100", "outline": "as §1"}, "[18]": {"tested_on": "large crabgrass (Digitaria sanguinalis, DIGSA)", "test": "Post-emerge test, greenhouse herbicide activity screening", "conditions": "post-emerge, 14 days after application, rating scale 0-100", "outline": "as §1"}, "[19]": {"tested_on": "redroot pigweed (Amaranthus retroflexus, AMARE)", "test": "Post-emerge test, greenhouse herbicide activity screening", "conditions": "post-emerge, 14 days after application, rating scale 0-100", "outline": "as §1"}, "[20]": {"tested_on": "sicklepod (Cassia obtusifolia, CASOB)", "test": "Post-emerge test, greenhouse herbicide activity screening", "conditions": "post-emerge, 14 days after application, rating scale 0-100", "outline": "as §1"}, "[21]": {"tested_on": "velvetleaf (Abutilon theophrasti, ABUTH)", "test": "Post-emerge test, greenhouse herbicide activity screening", "conditions": "post-emerge, 14 days after application, rating scale 0-100", "outline": "as §1"}, "[22]": {"tested_on": "field corn (Zea mays L., var. Dekalb 535, CORN)", "test": "Post-emerge test, crop safety", "conditions": "post-emerge, 14 days after application, rating scale 0-100", "outline": "(§3)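 Plants grown in 10 cm pots of sandy loam mix received acetone-dissolved compounds through a moving flat-fan nozzle. Doses ranged from 15 to 1000 g ai/ha. Pre-emerge pots were seeded one day earlier, post-emerge pots 8–21 days earlier. Fourteen days on, each pot was graded 0–100 for damage.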"}, "[23]": {"tested_on": "upland rice (Oryza sp., var. Tebonnet, RICE)", "test": "Post-emerge test, crop safety", "conditions": "post-emerge, 14 days after application, rating scale 0-100", "outline": "as §3"}},
  "data": [
    {"compound": "CCCSCC(=O)Nc1c(OC)c(Cl)cc(F)c1-n1c(=O)cc(C(F)(F)F)n(C)c1=O", "note": "[2-174]", "values": [
      {"measurement": "phytotoxicity rating AMARE", "setting": "[1]; 63 g ai/ha", "value": 90},
      {"measurement": "phytotoxicity rating AMARE", "setting": "[1]; 250 g ai/ha", "value": 100},
      {"measurement": "phytotoxicity rating ECHCG", "setting": "[2]; 63 g ai/ha", "value": 0},
      {"measurement": "phytotoxicity rating ECHCG", "setting": "[2]; 250 g ai/ha", "value": 60},
      {"measurement": "phytotoxicity rating AMBEL", "setting": "[3]; 63 g ai/ha", "value": 10},
      {"measurement": "phytotoxicity rating AMBEL", "setting": "[3]; 250 g ai/ha", "value": 90},
      {"measurement": "phytotoxicity rating SETVI", "setting": "[4]; 63 g ai/ha", "value": 20},
      {"measurement": "phytotoxicity rating SETVI", "setting": "[4]; 250 g ai/ha", "value": 90},
      {"measurement": "phytotoxicity rating IPOHE", "setting": "[5]; 63 g ai/ha", "value": 30},
      {"measurement": "phytotoxicity rating IPOHE", "setting": "[5]; 250 g ai/ha", "value": 100},
      {"measurement": "phytotoxicity rating SORHA", "setting": "[6]; 63 g ai/ha", "value": 10},
      {"measurement": "phytotoxicity rating SORHA", "setting": "[6]; 250 g ai/ha", "value": 90},
      {"measurement": "phytotoxicity rating CHEAL", "setting": "[7]; 63 g ai/ha", "value": 80},
      {"measurement": "phytotoxicity rating CHEAL", "setting": "[7]; 250 g ai/ha", "value": 100},
      {"measurement": "phytotoxicity rating DIGSA", "setting": "[8]; 63 g ai/ha", "value": 20},
      {"measurement": "phytotoxicity rating DIGSA", "setting": "[8]; 250 g ai/ha", "value": 70},
      {"measurement": "phytotoxicity rating CASOB", "setting": "[9]; 63 g ai/ha", "value": 40},
      {"measurement": "phytotoxicity rating CASOB", "setting": "[9]; 250 g ai/ha", "value": 80},
      {"measurement": "phytotoxicity rating ABUTH", "setting": "[10]; 63 g ai/ha", "value": 100},
      {"measurement": "phytotoxicity rating ABUTH", "setting": "[10]; 250 g ai/ha", "value": 100},
      {"measurement": "phytotoxicity rating CORN (crop damage)", "setting": "[11]; 63 g ai/ha", "value": 0},
      {"measurement": "phytotoxicity rating CORN (crop damage)", "setting": "[11]; 250 g ai/ha", "value": 60},
      {"measurement": "phytotoxicity rating RICE (crop damage)", "setting": "[12]; 63 g ai/ha", "value": 10},
      {"measurement": "phytotoxicity rating RICE (crop damage)", "setting": "[12]; 250 g ai/ha", "value": 50},
      {"measurement": "ECHCG phytotoxicity rating", "setting": "[13]; 63 g ai/ha", "value": 0},
      {"measurement": "ECHCG phytotoxicity rating", "setting": "[13]; 250 g ai/ha", "value": 0},
      {"measurement": "SETVI phytotoxicity rating", "setting": "[14]; 63 g ai/ha", "value": 10},
      {"measurement": "SETVI phytotoxicity rating", "setting": "[14]; 250 g ai/ha", "value": 10},
      {"measurement": "IPOHE phytotoxicity rating", "setting": "[15]; 63 g ai/ha", "value": 70},
      {"measurement": "IPOHE phytotoxicity rating", "setting": "[15]; 250 g ai/ha", "value": 80},
      {"measurement": "SORHA phytotoxicity rating", "setting": "[16]; 63 g ai/ha", "value": 0},
      {"measurement": "SORHA phytotoxicity rating", "setting": "[16]; 250 g ai/ha", "value": 0},
      {"measurement": "CHEAL phytotoxicity rating", "setting": "[17]; 63 g ai/ha", "value": 55},
      {"measurement": "CHEAL phytotoxicity rating", "setting": "[17]; 250 g ai/ha", "value": 85},
      {"measurement": "DIGSA phytotoxicity rating", "setting": "[18]; 63 g ai/ha", "value": 0},
      {"measurement": "DIGSA phytotoxicity rating", "setting": "[18]; 250 g ai/ha", "value": 10},
      {"measurement": "AMARE phytotoxicity rating", "setting": "[19]; 63 g ai/ha", "value": 60},
      {"measurement": "AMARE phytotoxicity rating", "setting": "[19]; 250 g ai/ha", "value": 60},
      {"measurement": "CASOB phytotoxicity rating", "setting": "[20]; 63 g ai/ha", "value": 60},
      {"measurement": "CASOB phytotoxicity rating", "setting": "[20]; 250 g ai/ha", "value": 75},
      {"measurement": "ABUTH phytotoxicity rating", "setting": "[21]; 63 g ai/ha", "value": 60},
      {"measurement": "ABUTH phytotoxicity rating", "setting": "[21]; 250 g ai/ha", "value": 80},
      {"measurement": "CORN phytotoxicity rating (crop damage)", "setting": "[22]; 63 g ai/ha", "value": 10},
      {"measurement": "CORN phytotoxicity rating (crop damage)", "setting": "[22]; 250 g ai/ha", "value": 25},
      {"measurement": "RICE phytotoxicity rating (crop damage)", "setting": "[23]; 63 g ai/ha", "value": 20},
      {"measurement": "RICE phytotoxicity rating (crop damage)", "setting": "[23]; 250 g ai/ha", "value": 20}
    ]}
  ]
}
